What was measured:
[1] = target: HLA-DR4 (HLA-DRA*0101 and -DRB1*0401), as expressed in HLA-DR4 transgenic mice (human); experiment: cell-based or functional assay
[2] = target: HLA-DR3 (HLA-DRA*0101 and -DRB1*0301), as expressed in HLA-DR3 transgenic mice (human); experiment: cell-based or functional assay
[3] = test system: splenocytes of HLA-A24 (A*2402) transgenic mice; assay type: cell-based; set-up: key to A24: average IFN-γ spots forming cells per million splenocytes: — represents no positive ELISpot response
[4] = test system: splenocytes of HLA-B7 (B*0702) transgenic mice; assay type: cell-based; set-up: key to B7: average IFN-γ spots forming cells per million splenocytes: — represents no positive ELISpot response
[5] = test system: splenocytes of HLA-DR2 (DRB1*1501) transgenic mice; assay type: cell-based; set-up: key to DR2: average IFN-γ spots forming cells per million splenocytes: — represents no positive ELISpot response
[6] = test system: splenocytes of HLA-DR3 (DRB1*0301) transgenic mice; assay type: cell-based; set-up: key to DR3: average IFN-γ spots forming cells per million splenocytes: — represents no positive ELISpot response
[7] = test system: splenocytes of HLA-DR4 (DRB1*0401) transgenic mice; assay type: cell-based; set-up: key: — represents no positive ELISpot response

Row | Substance | IFN-γ ELISpot at 10 µg/ml peptide, splenocytes of immunized HLA transgenic mice [1] | lowest concentration of peptide giving positive ELISpot response [1] [µg/mL] | A24: average IFN-γ spots forming cells per million splenocytes [3] | B7: average IFN-γ spots forming cells per million splenocytes [4] | DR2: average IFN-γ spots forming cells per million splenocytes [5] | DR3: average IFN-γ spots forming cells per million splenocytes [6] | DR4: average IFN-γ spots forming cells per million splenocytes [7] | other results
1 | M1 175-191 peptide of influenza virus A/New York/348/2003 (H1N1) | 165 | 0.1 |  |  |  |  |  | 
2 | NP 73-89 peptide of influenza virus A/New York/348/2003 (H1N1) | 121 | 0.1 |  |  |  |  |  | 
3 | PB1 37-53 peptide of influenza virus A/New York/348/2003 (H1N1) | 125 | 0.1 |  |  |  |  |  | 
4 | NP 408-424 peptide of influenza virus A/New York/348/2003 (H1N1) |  |  |  |  |  |  |  | IFN-γ ELISpot at 10 µg/ml peptide, splenocytes of immunized HLA transgenic mice [2]: 41; lowest concentration of peptide giving positive ELISpot response [2]: 10 µg/mL
5 | PB1 507-523 peptide of influenza virus A/New York/348/2003 (H1N1) | 274 | 0.1 |  |  |  |  |  | 
6 | PB1 126-142 peptide of influenza virus A/New York/348/2003 (H1N1) |  |  |  |  |  |  |  | IFN-γ ELISpot at 10 µg/ml peptide, splenocytes of immunized HLA transgenic mice [2]: 78; lowest concentration of peptide giving positive ELISpot response [2]: 0.1 µg/mL
7 | PB2 42-58 peptide of influenza virus A/New York/348/2003 (H1N1) | 166 | 0.1 |  |  |  |  |  | 
8 | PB2 48-64 peptide of influenza virus A/New York/348/2003 (H1N1) | 161 | 0.1 |  |  |  |  |  | 
9 | PB2 458-474 peptide of influenza virus A/New York/348/2003 (H1N1) | 238 | 0.1 |  |  |  |  |  | 
10 | PA 126-142 peptide of influenza virus A/New York/348/2003 (H1N1) | 37 | 0.1 |  |  |  |  |  | 
11 | PB1 31-47 peptide of influenza virus A/New York/348/2003 (H1N1) | 106 | 0.1 |  |  |  |  |  | 
12 | PA 558-574 peptide of influenza virus A/New York/348/2003 (H1N1) | 114 | 0.1 |  |  |  |  |  | 
13 | SRPMFLYVRTNGTSKIK |  |  | — | — | — | — | 114 ± 24(0.1) IFN-γ spots forming cells per million splenocytes | 
14 | PA 132-148 peptide of influenza virus A/New York/348/2003 (H1N1) | 41 | 0.1 |  |  |  |  |  | 
15 | M1 181-197 peptide of influenza virus A/New York/348/2003 (H1N1) | 115 | 1 |  |  |  |  |  | 
16 | LASTTAKAMEQMAGSSE |  |  | — | — | — | — | 115 ± 21(1) IFN-γ spots forming cells per million splenocytes | 
17 | DKLTQGRQTYDWTLNRN |  |  | — | — | — | 142 ± 6(0.1) IFN-γ spots forming cells per million splenocytes | — | DR3: lowest concentration of peptide giving positive ELISpot response in peptide titration [6]: 142 ± 6(0.1) μg/ml

Row | Substance | IFN-γ ELISpot at 10 µg/ml peptide, splenocytes of immunized HLA transgenic mice [1] | lowest concentration of peptide giving positive ELISpot response [1] [µg/mL] | A24: average IFN-γ spots forming cells per million splenocytes [3] | B7: average IFN-γ spots forming cells per million splenocytes [4] | DR2: average IFN-γ spots forming cells per million splenocytes [5] | DR3: average IFN-γ spots forming cells per million splenocytes [6] | DR4: average IFN-γ spots forming cells per million splenocytes [7] | other results
18 | KHGTFGPVHFRNQVKIR |  |  | — | — | — | — | 316 ± 20(0.1) IFN-γ spots forming cells per million splenocytes | 
19 | SHGTGTGYTMDTVNRTH |  |  | — | — | — | — | 106 ± 1(0.1) IFN-γ spots forming cells per million splenocytes | 
20 | KWVRELVLYDKEEIRRI |  |  | — | — | — | 614 ± 21(0.1) IFN-γ spots forming cells per million splenocytes | — | DR3: lowest concentration of peptide giving positive ELISpot response in peptide titration [6]: 614 ± 21(0.1) μg/ml
21 | LEKANKIKSEKTHIHIF |  |  | — | — | — | — | 41 ± 10(0.1) IFN-γ spots forming cells per million splenocytes | 
22 | PB2 126-142 peptide of influenza virus A/New York/348/2003 (H1N1) | 316 | 0.1 |  |  |  |  |  | 
23 | GRFYIQMCTELKLNDYE |  |  | — | — | — | 66 ± 7(1) IFN-γ spots forming cells per million splenocytes | — | DR3: lowest concentration of peptide giving positive ELISpot response in peptide titration [6]: 66 ± 7(1) μg/ml
24 | GPAKNMEYDAVATTHSW |  |  | — | — | — | 142 ± 45(0.1) IFN-γ spots forming cells per million splenocytes | 41 ± 9(0.1) IFN-γ spots forming cells per million splenocytes | DR3: lowest concentration of peptide giving positive ELISpot response in peptide titration [6]: 142 ± 45(0.1) μg/ml
25 | PB2 132-148 peptide of influenza virus A/New York/348/2003 (H1N1) | 311 | 0.1 |  |  |  |  |  | 
26 | NP 7-23 peptide of influenza virus A/New York/348/2003 (H1N1) | 52 | 0.1 |  |  |  |  |  | 
27 | EYDAVATTHSWVPKRNR |  |  | — | — | — | — | 59 ± 2(0.1) IFN-γ spots forming cells per million splenocytes | 
28 | MWEINGPESVLINTYQW |  |  | 289 ± 16 IFN-γ spots forming cells per million splenocytes | — | — | — | — | A24: lowest concentration of peptide giving positive ELISpot response in peptide titration [3]: (0.1) μg/ml
29 | APIMFSNKMARLGKGYM |  |  | — | — | — | 175 ± 0(0.1) IFN-γ spots forming cells per million splenocytes | — | DR3: lowest concentration of peptide giving positive ELISpot response in peptide titration [6]: 175 ± 0(0.1) μg/ml
30 | RQTYDWTLNRNQPAATA |  |  | — | — | — | 78 ± 0(0.1) IFN-γ spots forming cells per million splenocytes | — | DR3: lowest concentration of peptide giving positive ELISpot response in peptide titration [6]: 78 ± 0(0.1) μg/ml
31 | RATAILRKATRRLIQLI |  |  | — | — | — | — | 54 ± 2(0.1) IFN-γ spots forming cells per million splenocytes | 
32 | PB2 369-385 peptide of influenza virus A/New York/348/2003 (H1N1) | 54 | 0.1 |  |  |  |  |  | 
33 | TEKLTITYSSSMMWEIN |  |  | — | — | 151 ± 67(0.1) IFN-γ spots forming cells per million splenocytes | — | — | DR2: lowest concentration of peptide giving positive ELISpot response in peptide titration [5]: 151 ± 67(0.1) μg/ml
34 | PB1 656-672 peptide of influenza virus A/New York/348/2003 (H1N1) | 59 | 0.1 |  |  |  |  |  | 

— patent US20120294879A1, “CONSENSUS SEQUENCE FOR INFLUENZA A VIRUS” (priority 2009, published 2012)
